The melting point is the temperature, or range, at which the solid turns liquid. Take `CSc1ccc2c3c(cccc13)C(=O)N2`: the melting point is 167 to 172 °C. As to `CCOc1c(C#N)c(C#N)c(OCC)c2ccccc12`, the melting point is 167 °C. For the compound `COc1ccc2c(c1)SC(C#N)=C(N)CO2`, the melting point was 203 to 205 °C.

Take `CN1C(=O)C2CC2(c2ccc(N(C)C)cc2)C1=O` (configuration not stated): the melting point amounted to 140 °C. Regarding `COC(=O)C1=C(C)NC(CO)=C(C(=O)OC)C1c1ccccc1[N+](=O)[O-]` (configuration not stated), the melting point fell in the range of 164 to 165 °C. In the case of `CCCCOc1ccc(S(C)(=O)=O)cc1C(=O)Nc1c(C(N)=O)nn(C2CN(C(C)C)C2)c1CC`, the melting point lay within 198 to 201 °C. `CSc1ccc(C2=NC[C@@H](OC(=O)Nc3ccccc3)[C@H](c3ccccc3)O2)cc1` (racemic) returned a melting point of 170 °C. The value for `Cc1c(C(=O)O)cccc1-n1cccc1` was 146 to 148 °C. Under `CCOCCc1cc(O)ccc1N` stands 102 °C; under `COc1cc(OC)cc(N2CCN(C(=S)Nc3cc(C(C)O)c(C)cc3OC)CC2)c1` (configuration not stated), 146 to 148 °C; under `CCn1c(=O)c(CC(=O)OC)cc2ccc(O)cc21`, 176 to 178 °C. Take `CCCCCCCCCCCCc1ccc(C(OC(C)=O)C(COC(C)=O)NC(C)=O)s1` (configuration not stated): the melting point fell in the range of 105 to 107 °C. Compound `CCS(=O)(=O)Nc1ccc([N+](=O)[O-])cc1SC1CCCCC1` yielded a melting point of 119 to 120 °C. On to `O=C(NCCCCCn1ccnc1)c1cc2cc(Cl)ccc2[nH]1`, for which the melting point lay in the range of 214 to 216 °C. Regarding `Cc1ccc2[nH]c(SCC(F)(F)F)nc2c1`, the melting point was 159 to 161 °C.

The compound `COC(=O)c1ccc2c(c(C)nn2C)c1C(=O)NC(C)(C(N)=O)C(C)C` (configuration not stated) came in with a melting point of 221 to 222 °C. The value for `CC(C)(C)c1cc(C(c2ccc([N+](=O)[O-])cc2)N2CCCCC2)cc(C(C)(C)C)c1O` (configuration not stated) was 147 to 148 °C. The value for `O=C(Cc1ccc(Br)cc1)OCc1ccccc1` was 47.5 to 48 °C; that for `Cc1nc(O)sc1CCCl` was 151 to 152 °C. In turn, `CCNC(=O)c1c([Si](C)(C)C)sc(C)c1C` returned a melting point of 90 to 94 °C. `O=C(NCCOCc1cccc(Cl)c1)c1c(Cl)cccc1Cl` had a melting point of 70 to 72 °C. The compound `Cc1c[nH]c(-c2ccc(OCC(O)CO)cc2)n1` (configuration not stated) yielded a melting point of 196 to 199 °C. For `COC(=O)c1c[nH]c(Cl)c1`, the melting point was found to be 92 °C.

The compound `CC(C(N)=O)c1ccc2c(c1)C(=O)Cc1ccccc1S2` (configuration not stated) registered a melting point of 190 to 192 °C. `CC(C)c1ccc(NC(=O)c2ccc(C(=O)O)cn2)cc1C(C)C` gave a melting point of 188 to 190 °C. `CC(C)Oc1cc(-n2c(=O)[nH]c3c(c2=O)CCC3)c(F)cc1Cl` showed a melting point of 215 to 217 °C. As to `COc1ccc(Cl)cc1-n1cncc1-c1ccc(C(F)(F)F)cc1`, the melting point was 158 to 159 °C. Regarding `CCCC(=O)N(Cc1ccc(Cl)cc1Cl)c1c(NC(C)(C)CC)c(=O)c1=O`, the melting point fell in the range of 112 to 117 °C. The value for `CC(C)C(c1cncnc1C(F)(F)F)N(C)C(=O)N(C)Cc1ccc(Cl)cc1` (configuration not stated) was 95 to 98 °C; that for `Clc1cc(Cl)cc(C=C2CCC3(CC2)OCCO3)c1` was 66 °C; that for `NC(=O)C1CCc2[nH]c3ccc(Cl)cc3c2C1` (configuration not stated) was 247 to 248 °C.

`COc1ccc(C(=O)Nc2ccccc2CCC2CCCCN2C)cc1` (configuration not stated) had a melting point of 127 to 128 °C. The value for `CCCN(Cc1cccc(-c2noc(C)n2)c1)C(=O)Nc1ccc(Br)cc1` was 113 to 114 °C; that for `COC(=O)c1cc2cc([N+](=O)[O-])cc(O)c2o1` was 252 to 253 °C; that for `CCCCn1nnc(-c2ccc(C(=O)NCC3CCCC3(C)C)cc2)n1` (configuration not stated) was 121 to 123 °C. Under `O=CCCc1ccc2oc(Cc3ccc4ccccc4c3)nc2c1` stands 81 to 82 °C; under `CCCc1ccc2oc(CCc3ccc(OC)cc3)c(C)c2c1O`, 77 to 79 °C; under `Cc1c(C)c2c(c(C)c1N)CC(C)(CN1CCC(OCCCc3ccccc3)CC1)O2` (configuration not stated), 53 to 54 °C. In turn, `Oc1ccc(-c2cc3cc(O)cc(Cn4ccnc4)c3o2)cc1` had a melting point of 269 to 271 °C. `CC(C)OP(=O)(CCCCC1(C(=O)NCC(F)(F)F)c2ccccc2-c2ccccc21)OC(C)C` gave a melting point of 91 to 94 °C. `O=C(O)CSCc1cc2c(cc1Cc1ccccc1)OCO2` showed a melting point of 99.5 to 100 °C. `N#Cc1ccc2[nH]cc(CCN)c2c1` displayed a melting point of 102 to 105 °C. `O=C1NC(=O)C(c2ccc3c(c2)CCC3)S1` (configuration not stated): the melting point is 124 to 125 °C.

Take `COC(=O)c1cc2ccc(OC)cc2n1CCN1CCC(N)CC1`: the melting point was found to be 101 °C. Take `CC(C)(C)c1ccc(CCC(=O)C2CCCCCC2)cc1NC(=O)CC1c2ccccc2Oc2ccccc21`: the melting point lay within 155 to 156 °C.

As for `O=C(Nc1ccc(C(=O)N2Cc3ccccc3Oc3ccccc32)c(Cl)c1)c1ccccc1-c1ccccc1`, the melting point lay in the range of 145 to 188 °C. On to `COc1ccc(S(=O)(=O)Nc2ccccc2Nc2ccc(Cl)cc2)cc1`, for which the melting point was 127 to 128 °C.

Consider `CC(=O)Oc1cccc2c1C(=O)c1c(OC(C)=O)cc(-c3nnn[nH]3)cc1C2=O`, for which the melting point was in the range of 189 to 190 °C. Under `CC(C)(C)c1ccc(-c2cccc(-c3ccc(C(C)(C)C)cc3)c2N)cc1` stands 106 °C. Consider `COC(=O)NNC(=O)Nc1cccc2c1C(=O)c1c-2n[nH]c1-c1ccc(OC)cc1`, for which the melting point was above 300 °C. With `COc1cccc(SSc2cccc(OC)c2S(=O)(=O)NC(C)(C)C)c1S(=O)(=O)NC(C)(C)C`, the melting point was 275 °C. The value for `Cc1ccc(Sc2ccccc2)c(CC(=O)O)c1` was 83 to 84 °C.

On to `N#Cc1nc(Cl)c(Cl)nc1C#N`, for which the melting point is 180 to 182 °C. Consider `COC(=O)Cn1c(C)cc(Cc2ccc(F)cc2)c(NC(=O)OCc2ccccc2)c1=O`, for which the melting point was found to be 236 °C. Under `Nc1cc(Cl)c(N)c2c1C(=O)c1ccccc1C2=O` stands 207 to 210 °C. The value for `CC(=O)N1CCN(c2ccc(Nc3nccc(-c4sc(Nc5ccccc5)nc4C)n3)cc2)CC1` was 245 to 246 °C; that for `Fc1ccc2c(c1)C(OCC1CC1)(C(F)F)c1cc(Cl)cnc1N2` (configuration not stated) was 169 to 170 °C; that for `Cc1nn(CC(F)(F)F)c(-c2ccc(F)cc2)c1-c1ccc2c(c1)NC(=O)CO2` was 174 °C.

`O=C(CCCC(=O)C(F)(F)F)c1cccc(OCc2ccccc2)c1` had a melting point of 75.3 to 80.3 °C.

In turn, `COc1cc(C)c2c(c1)OC(C)(C)CC2=O` registered a melting point of 86 to 88 °C. On to `Nc1ccc(Cl)cc1C(=O)c1ccc(Cl)cc1`, for which the melting point lay in the range of 106 to 107 °C. As to `C=CCCOc1ccc2c(c1)C(=O)c1cc3ccccc3cc1C2=O`, the melting point turned out to be 149 °C. For `COC(=O)NS(=O)(=O)Oc1c(C(C)C)cccc1C(C)C`, the melting point was 92 to 95 °C. In the case of `CCCSc1cn(C)cc(-c2ccc(Cl)c(C(F)(F)F)c2)c1=O`, the melting point lay in the range of 128 to 130 °C.

For `COC(=O)CCC(=O)c1ccc(SC(=O)N(C)C)cc1`, the melting point was 98 to 100 °C.

`COc1ccc(N(CCCC(=O)O)C(=O)CCN(C(=O)c2ccc(Cl)cc2)c2c(C)cccc2C)cc1` displayed a melting point of 138 to 140 °C. `O=C(Nc1ccccc1)N1CC(Oc2ccc(C(F)(F)F)cc2)C1` came in with a melting point of 174 to 176 °C. `NC(=O)c1ccc(F)c2c1OCC(N(CCCc1c[nH]c3ccc(F)cc13)CC1CC1)C2` (configuration not stated) showed a melting point of 123 °C. `CN1CCN(Cc2nc(C(N)=O)nn2-c2ccc(Cl)cc2C(=O)c2ccccc2Cl)CC1` registered a melting point of 167 to 169 °C.

With `CCOc1ccc(/C=C/c2cc(OC)cc(OC)c2)cc1`, the melting point lay in the range of 54 to 55 °C. Under `COc1cc2c(cn1)CCCC2=NO` stands 175 to 178 °C; under `Cc1c(C)c(N2CCN(c3nccs3)CC2)c(C)c2c1OC(C)(C)C2`, 150 to 151 °C. For the compound `COC(=O)CCCS(=O)c1c(Cc2cccc3ccccc23)sc2c1c(=O)n(C)c(=O)n2CC(C)C` (configuration not stated), the melting point fell in the range of 160 to 161 °C. For `COC(=O)c1sc(C(=O)OC)c(OC)c1N`, the melting point was 120 to 124 °C. `CC1CCc2cc(F)cc3c(=O)c(C(=O)NN)cn1c23` (configuration not stated) yielded a melting point of 236 to 238 °C.

On to `N=C(NC1CC1)c1cc2c(cn1)[nH]c1ccccc12`, for which the melting point was 253 °C. For `O=C(Nc1cc(Cl)ccc1O)Nc1ccccc1C(F)(F)F`, the melting point is 183 to 184 °C. Under `CCOC(=O)c1cnn2c1NCC=C2c1cccc(C(F)(F)F)c1` stands 108 to 110 °C. Consider `COC(=O)c1ccc(OCCNC(=O)c2ccc(Br)cc2)cc1`, for which the melting point lay within 134 to 136 °C. The compound `COC(=O)CCCc1cc2cc(Cl)ccc2n1S(=O)(=O)c1cccc2nsnc12` registered a melting point of 123 to 126 °C. Compound `CCc1cc([N+](=O)[O-])cc(C=O)c1O` came in with a melting point of 93.5 to 94 °C.

Compound `COC(=O)c1ccc2c(c1)C(=O)C1(CC1)O2` came in with a melting point of 89 to 91 °C.

With `O=C1NN(c2ccccc2)CC1CN1CCOCC1` (configuration not stated), the melting point is 143 to 144 °C. Turning to `COc1cc(OC)c([N+](=O)[O-])c(C(=O)NC2CCN(C(c3ccccc3)c3ccccc3)CC2)c1`, the melting point lay within 148 to 150 °C. Regarding `CCc1cccc(C(C)C)c1N1C(=O)CCN(CC)C1=S`, the melting point was in the range of 129 to 132 °C. `O=S(=O)(Nc1cccc(CCOCc2ccc(-c3ccc(F)cc3)cc2F)c1)C(F)(F)F` had a melting point of 65 to 67 °C. Compound `CSc1ccc(F)cc1C(C)=O` returned a melting point of 82 to 84.3 °C. `CC(=O)Cc1ccc(OCc2ccc(Cl)cc2)cc1` showed a melting point of 76 to 80 °C. On to `Nc1ncccc1OCc1ccc(Cl)cc1`, for which the melting point lay in the range of 121 to 123 °C. `O=c1n(-c2ccc(C(F)(F)F)cc2)c(=O)n2n1CC(c1ccccc1)C2c1ccc(Cl)cc1` (configuration not stated) returned a melting point of 148 to 150 °C.

In turn, `CCn1ncc2c(Cl)c(CO)cnc21` showed a melting point of 56 °C. As for `O=C(O)c1ccccc1-c1nnc(-c2ccccc2)o1`, the melting point is 173 to 175 °C.

(Values after a melting point compilation (Tetko et al.; mined from patent text by program, amines drawn as free bases though some values may be those of a salt).)
